From patent publication US11377442B2, “Small molecule agonists and antagonists of NR2F6 activity” (ZANDER THERAPEUTICS, INC., priority 2016, dated 2022)
Where two headings read alike, the source gives them in different places.

How the values were obtained:
pH stability = format: physicochemical
Renilla [1] = assay: Renilla signal, LBD, cmpd/DMSO (NR2F6 LBD transfected cells); format: cell-based
hCyt P450 [2] = biological target: hCyt P450 (Homo sapiens, UniProt P08684); assay: CYP inhibition; format: in vitro ADME
hCyt P450 [3] = assay: CYP inhibition; format: in vitro ADME, human
HEK293 pGL4 = assay: Firefly_pGL signal, cmpd/DMSO (pGL4 control cells); format: cell-based; settings: Homo sapiens
Renilla [4] = assay: Renilla signal in NR2F6 agonist screening, cmpd/DMSO; format: cell-based; settings: Renilla
[5] = Microsomal stability in rat liver microsomes; format: in vitro ADME
NR2F6 = biological target: T1, NR2F6 (Homo sapiens, UniProt P10588); assay: NR2F6 agonist screening, Firefly signal cmpd/DMSO; format: cell-based
T1 construct: expressed in transfected cells; also transient transfection
T1 sequence (P10588 1-404): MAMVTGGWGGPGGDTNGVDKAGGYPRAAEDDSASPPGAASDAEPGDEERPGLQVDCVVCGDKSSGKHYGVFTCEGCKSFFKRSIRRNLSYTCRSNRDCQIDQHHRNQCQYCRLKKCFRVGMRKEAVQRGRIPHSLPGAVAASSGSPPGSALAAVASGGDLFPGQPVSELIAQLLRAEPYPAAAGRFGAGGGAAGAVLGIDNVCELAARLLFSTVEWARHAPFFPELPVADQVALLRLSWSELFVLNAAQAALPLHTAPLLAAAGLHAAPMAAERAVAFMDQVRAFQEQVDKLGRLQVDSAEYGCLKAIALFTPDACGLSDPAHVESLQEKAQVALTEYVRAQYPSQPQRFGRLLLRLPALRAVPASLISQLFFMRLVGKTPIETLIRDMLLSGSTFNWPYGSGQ

NR2F6 LBD = biological target: T2, NR2F6 LBD (Homo sapiens, UniProt P10588); assay: NR2F6 LBD transient transfection; format: cell-based
T2 construct: expressed in transfected cells
T2 sequence (P10588 165-393 limits assumed): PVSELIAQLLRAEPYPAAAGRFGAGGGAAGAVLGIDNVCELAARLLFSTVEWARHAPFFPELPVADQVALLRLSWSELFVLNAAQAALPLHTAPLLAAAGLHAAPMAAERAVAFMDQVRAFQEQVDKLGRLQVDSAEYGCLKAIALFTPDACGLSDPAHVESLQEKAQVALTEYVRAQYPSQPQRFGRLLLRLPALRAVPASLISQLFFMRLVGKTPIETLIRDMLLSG
Method in brief: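 LBD-transfected cells treated at 40, 10, 2 and 0.5 μM (4 replicates); cytotoxicity measured in parallel, normalized to DMSO (0%) and zero signal (100%). Higher concentrations excluded where signal loss reflected toxicity.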

[6] = read-out: Renilla F4, cmpd/DMSO (mean)
[7] = F4, 1% FBS, read-out: Renilla, F4, 1% FBS, cmpd/DMSO (mean)
[8] = F4, 10% FBS, read-out: Renilla, F4, 10% FBS, cmpd/DMSO (mean)

Sequence of hCyt P450 (Homo sapiens, UniProt P08684) (P08684 whole entry): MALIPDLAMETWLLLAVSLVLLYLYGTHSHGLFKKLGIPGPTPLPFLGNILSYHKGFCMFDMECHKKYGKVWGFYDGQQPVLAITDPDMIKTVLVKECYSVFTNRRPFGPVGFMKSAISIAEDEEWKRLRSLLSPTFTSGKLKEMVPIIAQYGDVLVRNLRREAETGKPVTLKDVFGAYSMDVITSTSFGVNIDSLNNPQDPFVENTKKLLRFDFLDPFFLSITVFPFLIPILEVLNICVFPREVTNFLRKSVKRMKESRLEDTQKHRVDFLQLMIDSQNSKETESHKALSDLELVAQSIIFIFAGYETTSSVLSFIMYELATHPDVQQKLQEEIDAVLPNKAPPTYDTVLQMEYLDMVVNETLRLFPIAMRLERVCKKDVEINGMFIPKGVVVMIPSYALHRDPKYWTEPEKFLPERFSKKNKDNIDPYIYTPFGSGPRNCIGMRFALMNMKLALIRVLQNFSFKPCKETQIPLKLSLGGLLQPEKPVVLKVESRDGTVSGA

COCCN[C@H]1CS(=O)(=O)C[C@@H]1S(=O)(=O)c1ccc(Cl)cc1 [Compound D136]
pH stability at pH2 (pH stability; pH2): extremely stable
pH stability at pH7 (pH stability; pH7): extremely stable
Renilla LBD, cmpd/DMSO (mean) (Renilla [1]; 0.5 uM): 1.1
Renilla LBD, cmpd/DMSO (mean) (Renilla [1]; 2 uM): 1.0
Renilla LBD, cmpd/DMSO (mean) (Renilla [1]; 10 uM): 1.0
Renilla LBD, cmpd/DMSO (mean) (Renilla [1]; 40 uM): 0.6
CYP inhibition conclusion (hCyt P450 [2]; CYP 3A4-Midazolam): no inhi-
IC50 (hCyt P450 [2]; CYP 3A4-Midazolam): > 10 µM
CYP inhibition conclusion (hCyt P450 [2]; CYP 3A4-Testosterone): no inhi-
IC50 (hCyt P450 [2]; CYP 3A4-Testosterone): > 10 µM
inhibition of 7 major isoforms of hCyt P450 (hCyt P450 [3]): no inhibition
fold induction at 0.5 µM (HEK293 pGL4; HEK293, 0.5 uM, read-out: Firefly pGL4, cmpd/DMSO (mean)): 1.1
fold induction at 2 µM (HEK293 pGL4; HEK293, 2 uM, read-out: Firefly pGL4, cmpd/DMSO (mean)): 1
fold induction at 10 µM (HEK293 pGL4; HEK293, 10 uM, read-out: Firefly pGL4, cmpd/DMSO (mean)): 1.8
fold induction at 40 µM (HEK293 pGL4; HEK293, 40 uM, read-out: Firefly pGL4, cmpd/DMSO (mean)): 2.6
fold induction at 0.5 µM (HEK293 pGL4; HEK293, pGL4, 1% FBS, 0.5 uM, read-out: Firefly, pGL4, 1% FBS, cmpd/DMSO (mean)): 1.1
fold induction at 2 µM (HEK293 pGL4; HEK293, pGL4, 1% FBS, 2 uM, read-out: Firefly, pGL4, 1% FBS, cmpd/DMSO (mean)): 0.9
fold induction at 10 µM (HEK293 pGL4; HEK293, pGL4, 1% FBS, 10 uM, read-out: Firefly, pGL4, 1% FBS, cmpd/DMSO (mean)): 1.3
fold induction at 40 µM (HEK293 pGL4; HEK293, pGL4, 1% FBS, 40 uM, read-out: Firefly, pGL4, 1% FBS, cmpd/DMSO (mean)): 1.6
fold induction at 0.5 µM (HEK293 pGL4; HEK293, pGL4, 10% FBS, 0.5 uM, read-out: Firefly, pGL4, 10% FBS, cmpd/DMSO (mean)): 1.3
fold induction at 2 µM (HEK293 pGL4; HEK293, pGL4, 10% FBS, 2 uM, read-out: Firefly, pGL4, 10% FBS, cmpd/DMSO (mean)): 1.1
fold induction at 10 µM (HEK293 pGL4; HEK293, pGL4, 10% FBS, 10 uM, read-out: Firefly, pGL4, 10% FBS, cmpd/DMSO (mean)): 1.8
fold induction at 40 µM (HEK293 pGL4; HEK293, pGL4, 10% FBS, 40 uM, read-out: Firefly, pGL4, 10% FBS, cmpd/DMSO (mean)): 3.8
fold induction at 0.5 µM (Renilla [4]; [6]): 0.9
fold induction at 2 µM (Renilla [4]; [6]): 1.1
fold induction at 10 µM (Renilla [4]; [6]): 1.4
fold induction at 40 µM (Renilla [4]; [6]): 1.7
fold induction at 0.5 µM (Renilla [4]; [7]): 1.1
fold induction at 2 µM (Renilla [4]; [7]): 1.1
fold induction at 10 µM (Renilla [4]; [7]): 1.5
fold induction at 40 µM (Renilla [4]; [7]): 2.4
fold induction at 0.5 µM (Renilla [4]; [8]): 0.9
fold induction at 2 µM (Renilla [4]; [8]): 0.9
fold induction at 10 µM (Renilla [4]; [8]): 1.2
fold induction at 40 µM (Renilla [4]; [8]): 3.3
stability in presence of rat liver microsomes [5]: Extremely stable
Firefly F4, cmpd/DMSO (mean) (NR2F6; 0.5 uM): 1.5
Firefly F4, cmpd/DMSO (mean) (NR2F6; 2 uM): 1.1
Firefly F4, cmpd/DMSO (mean) (NR2F6; 10 uM): 2.7
Firefly F4, cmpd/DMSO (mean) (NR2F6; 40 uM): 5.2
F4, Firefly/Renilla for S/B(F4) > 3 (NR2F6; 1% FBS, 40 uM): 3.1
Firefly, F4/pGL4 for S/B(F4) > 3 (NR2F6; 1% FBS, 40 uM): 4.7
F4, Firefly/Renilla for S/B(F4) > 3 (NR2F6; 10% FBS, 40 uM): 3.5
Firefly, F4/pGL4 for S/B(F4) > 3 (NR2F6; 10% FBS, 40 uM): 3.0
Firefly, F4, 1% FBS, cmpd/DMSO (mean) (NR2F6; 1% FBS, 0.5 uM): 0.8
Firefly, F4, 1% FBS, cmpd/DMSO (mean) (NR2F6; 1% FBS, 2 uM): 1.0
Firefly, F4, 1% FBS, cmpd/DMSO (mean) (NR2F6; 1% FBS, 10 uM): 2.4
Firefly, F4, 1% FBS, cmpd/DMSO (mean) (NR2F6; 1% FBS, 40 uM): 7.4
Firefly, F4, 10% FBS, cmpd/DMSO (mean) (NR2F6; 10% FBS, 0.5 uM): 0.4
Firefly, F4, 10% FBS, cmpd/DMSO (mean) (NR2F6; 10% FBS, 2 uM): 1.4
Firefly, F4, 10% FBS, cmpd/DMSO (mean) (NR2F6; 10% FBS, 10 uM): 1.9
Firefly, F4, 10% FBS, cmpd/DMSO (mean) (NR2F6; 10% FBS, 40 uM): 12
activation of full-length NR2F6 (NR2F6; cellular assays): Activates
Firefly LBD, cmpd/DMSO (mean) (NR2F6 LBD; 0.5 uM): 1.0
Firefly LBD, cmpd/DMSO (mean) (NR2F6 LBD; 2 uM): 1.5
Firefly LBD, cmpd/DMSO (mean) (NR2F6 LBD; 10 uM): 2.6
Firefly LBD, cmpd/DMSO (mean) (NR2F6 LBD; 40 uM): 2.9
activation of ligand binding domain-only NR2F6 (NR2F6 LBD; cellular assays): Activates
